Assays:
[1] = molecular target: T1, human V1a receptor (Homo sapiens, UniProt P37288); design: expressed in transfected cells; host or cells: HEK-293; conditions: stated in literature; cited from earlier work
[2] = molecular target: V1a (Rattus norvegicus, UniProt P30560); conditions: stated in literature; cited from earlier work
[3] = molecular target: T2, human V2 receptor (Homo sapiens, UniProt P30518); test: V2 binding assay (3H-AVP displacement, HEK-293 membranes); design: expressed in transfected cells; host or cells: HEK-293 (membranes); conditions: for inhibition at 1 µM: 1.0 μM compound, read-out: V2@1.0, % Inh; for inhibition at 10 µM: 10 μM compound, read-out: V2 % Inh @10
T2 sequence (P30518 whole entry): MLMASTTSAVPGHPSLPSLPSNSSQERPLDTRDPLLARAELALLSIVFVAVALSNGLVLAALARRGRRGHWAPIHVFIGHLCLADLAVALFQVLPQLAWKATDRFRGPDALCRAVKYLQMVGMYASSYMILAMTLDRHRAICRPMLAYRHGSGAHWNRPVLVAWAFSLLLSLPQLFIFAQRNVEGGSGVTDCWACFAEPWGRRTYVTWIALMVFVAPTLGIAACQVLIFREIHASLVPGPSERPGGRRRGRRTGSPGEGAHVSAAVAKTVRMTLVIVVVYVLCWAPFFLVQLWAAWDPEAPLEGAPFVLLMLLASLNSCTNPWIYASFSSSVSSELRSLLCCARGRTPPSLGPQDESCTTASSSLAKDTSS
Procedure, shortened: (§1)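 Read-out is filter-retained 3H-AVP, counted by scintillation after washing with cold saline/0.05% Tween 20. Binding ran 1 hour at room temperature in pH 7.5 buffer with protease inhibitors; 1.25 μM unlabelled AVP gave non-specific binding.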

[4] = molecular target: T3, human V1b receptor (Homo sapiens, UniProt P47901); test: V1b binding assay (3H-AVP displacement, HEK-293 membranes); design: expressed in transfected cells; host or cells: HEK-293 (membranes); conditions: 10 μM compound; read-out: V1b % Inh @10
T3 sequence (P47901 1-424): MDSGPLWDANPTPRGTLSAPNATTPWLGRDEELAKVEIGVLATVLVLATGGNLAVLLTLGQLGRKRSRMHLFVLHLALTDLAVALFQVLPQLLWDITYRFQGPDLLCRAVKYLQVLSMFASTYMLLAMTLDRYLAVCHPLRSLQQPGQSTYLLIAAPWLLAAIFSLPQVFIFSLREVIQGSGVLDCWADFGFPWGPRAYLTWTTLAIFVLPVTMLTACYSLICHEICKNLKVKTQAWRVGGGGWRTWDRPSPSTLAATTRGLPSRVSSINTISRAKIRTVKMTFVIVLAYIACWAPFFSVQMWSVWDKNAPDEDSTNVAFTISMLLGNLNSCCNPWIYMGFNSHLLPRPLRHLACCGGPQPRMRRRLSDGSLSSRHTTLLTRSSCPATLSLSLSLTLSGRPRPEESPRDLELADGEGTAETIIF
Procedure, shortened: as §1

[5] = molecular target: T4, NPY2 receptors (Homo sapiens, UniProt P49146); test: Neuropeptide Y receptor binding assay (125I-PYY, KAN-TS cell membranes); conditions: 10 μM compound; read-out: NPY-2@10, % Inh
T4 construct: Cell Membranes from KAN-TS cells having NPY2 receptors; endogenous in cells; host or cells: KAN-TS cells (membranes)
T4 sequence (P49146 1-381): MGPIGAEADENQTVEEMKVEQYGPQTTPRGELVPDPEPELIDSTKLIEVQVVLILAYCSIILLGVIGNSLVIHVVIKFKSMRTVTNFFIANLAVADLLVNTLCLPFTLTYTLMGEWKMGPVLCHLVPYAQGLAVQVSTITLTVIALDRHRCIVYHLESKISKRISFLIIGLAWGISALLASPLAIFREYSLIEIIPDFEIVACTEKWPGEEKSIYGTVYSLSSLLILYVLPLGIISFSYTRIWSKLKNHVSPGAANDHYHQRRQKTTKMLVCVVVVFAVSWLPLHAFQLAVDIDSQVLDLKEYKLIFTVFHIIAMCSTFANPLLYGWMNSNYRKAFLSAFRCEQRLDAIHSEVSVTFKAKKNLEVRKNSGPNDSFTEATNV
Procedure, shortened: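 Membranes from KAN-TS cells competed with 125I-PYY in binding buffer containing BSA, test compound at 10 μM final, 1 hr at room temperature. Nonspecific binding defined with 1 μM PYY final. Tubes centrifuged, washed with PBS and bound radioactivity gamma-counted.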

[6] = molecular target: T1, human V1a receptor; test: V1a binding assay (3H-AVP displacement, HEK-293 membranes); design: expressed in transfected cells; host or cells: HEK-293 (membranes); conditions: for inhibition at 1 µM: 1.0 μM compound, read-out: V1a@1.0, % Inh
Procedure, shortened: as §1

[7] = molecular target: T3, human V1b receptor; test: V1b functional assay, intracellular calcium mobilization in transfected HEK-293 cells (FLIPR); type: cell-based; design: expressed in transfected cells; host or cells: HEK-293; conditions: HEK293; 30 μM compound; read-out: Cell-Based Functional activity V1b % Inh. @ 30
Experimental: (§2) V1a, V1b or V2 Functional Assay
(§3) HEK-293 cells were grown in DMEM media supplemented with 10% FBS and glutamine (Gibco BRL, Grand Island, N.Y.). Once transfected the cells were passed biweekly by trypsinization and seeded into 96 well plates at 33,000 cells per well. HEK-293 were transfected with human V1a, V1b or V2 DNA using DMRIE-C reagent from Life Technologies, Inc., Grand Island, N.Y. Cells were tested for their responsiveness to vasopressin 48 hours after transfection. Stable lines were generated by selecting cells grown in culture media containing geneticin (500 μg/ml, Life Technologies).
(§4) Intracellular calcium mobilization was measured in HEK-293 cells transfected to express either human V1a, oxytocin or V1b receptors. Cells were plated into black 96-well Packard Clear-View plates 4 to 7 days prior to use. The cells were loaded with fluo-3 AM (Molecular Probes, Inc., Eugene, Oreg.) in buffer (25 mM Hepes, 125 mM NaCl, 1 gm/l glucose, 0.1% BSA, 5 mM KCl, 0.5 mM CaCl2, 0.5 mM MgCl2, pH 7.45) containing Pluronic (Molecular Probes) Cells were incubated with 5 μM fluo-3 AM for 1 hour shielded from light at room temperature. Intracellular fluorescence was measured using FLIPR (fluorometric imaging plate reader; Molecular Devices, Inc., Sunnyvale, Calif.). The FLIPR protocol called for images to be collected at one second intervals with 50 μl of the test compound added after the initial 10 images. An additional 70 images were then taken to detect any compound agonistic activity. FLIPR then added 50 μl of agonist peptide and collected a final 40 images for quantitating compound antagonistic activity. V1a- and V1b-expressing HEK cells were challenged with 1 nM and 0.5 nM AVP, respectively. Oxytocin-expressing HEK cells were challenged with 0.5 nM oxytocin (Peninsula Labs).
(§5) The data from the cAMP accumulation and the calcium mobilization assays are expressed as IC50 values as determined from dose response curves.

[8] = molecular target: T1, human V1a receptor; test: V1a functional assay, intracellular calcium mobilization in transfected HEK-293 cells (FLIPR); design: expressed in transfected cells; host or cells: HEK-293; conditions: challenge 1 nM AVP; read-out: Cell-Based Functional activity V1a IC50
Experimental: as §2, §3, §4, §5

[9] = molecular target: T2, human V2 receptor; test: V2 functional assay, cAMP accumulation in transfected HEK-293 cells; type: cell-based; design: expressed in transfected cells; host or cells: HEK-293; conditions: HEK293; 30 μM compound; read-out: Cell-Based Functional activity V2 % Inh. @ 30
Experimental: as §2, §3
The accumulation of cAMP was measured in transfected HEK-293 expressing the human V2 receptor. The cells were cultured 4-7 days in 96-well plates. On the day of assay, cells were washed twice in assay media (DMEM/F12 containing 0.1% BSA). The cells were treated with the test compound for 5 minutes and then given AVP (1 nM) in assay media containing 1 mM isobutylmethylxanthine. After 5 minutes, 0.5 N HCl was added to disrupt the cells and solubilize cAMP. The cAMP content of 20 μl of the cell lysate in each well was measured using cAMP Flashplates (NEN Life Sciences). Data are expressed as pmol cAMP/well. While the assay is optimized to detect and quantitate antagonistic activity, agonistic activity would also be apparent at the higher concentrations of test compounds.
as §5

T1 sequence (P37288 whole entry): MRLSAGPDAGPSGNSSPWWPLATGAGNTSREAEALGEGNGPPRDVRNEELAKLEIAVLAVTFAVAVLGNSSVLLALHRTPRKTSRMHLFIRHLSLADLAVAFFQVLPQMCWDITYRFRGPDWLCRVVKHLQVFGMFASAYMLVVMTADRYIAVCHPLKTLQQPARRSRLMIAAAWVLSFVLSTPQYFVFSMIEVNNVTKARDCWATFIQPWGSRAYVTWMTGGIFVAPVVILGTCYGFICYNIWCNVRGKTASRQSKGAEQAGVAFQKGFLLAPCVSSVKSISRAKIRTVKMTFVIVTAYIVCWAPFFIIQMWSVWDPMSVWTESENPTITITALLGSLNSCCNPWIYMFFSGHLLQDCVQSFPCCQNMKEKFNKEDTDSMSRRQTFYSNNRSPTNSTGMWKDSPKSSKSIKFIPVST
V1a, sequence (P30560 whole entry): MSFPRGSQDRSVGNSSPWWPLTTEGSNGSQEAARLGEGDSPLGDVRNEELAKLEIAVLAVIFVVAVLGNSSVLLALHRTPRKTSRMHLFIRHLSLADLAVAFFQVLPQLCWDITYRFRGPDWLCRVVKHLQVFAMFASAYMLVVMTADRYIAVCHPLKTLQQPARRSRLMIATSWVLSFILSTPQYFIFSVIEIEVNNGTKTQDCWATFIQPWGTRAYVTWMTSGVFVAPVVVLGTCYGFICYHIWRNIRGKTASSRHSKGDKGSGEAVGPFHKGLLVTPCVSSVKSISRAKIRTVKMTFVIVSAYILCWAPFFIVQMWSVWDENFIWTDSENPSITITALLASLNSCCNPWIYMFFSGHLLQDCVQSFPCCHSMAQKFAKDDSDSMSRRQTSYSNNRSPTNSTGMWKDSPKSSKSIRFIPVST

Structure (SMILES) | activity when tested for binding to human V1a receptor [1] | activity in rat [2] | melting point [°C] | inhibition at 1 µM [3] [%] | inhibition at 10 µM [4] [%] | inhibition at 10 µM [5] [%] | inhibition at 1 µM [6] [%] | inhibition at 30 µM [7] [%] | IC50 [8] [nM] | inhibition at 30 µM [9] [%] | inhibition at 10 µM [3] [%] | IC50 [6] [nM]
CC(=O)NCCCOc1ccc(C(=O)N2CCC(N3C(=O)CCc4ccccc43)CC2)cc1 [OPC 21268] | no activity | only active in rat |  |  |  |  |  |  |  |  |  | 
O=c1[nH]c2ccccc2n1C1CCN(C(=S)Nc2ccccc2)CC1 [Compound 3] |  |  | 250 to 252 | 7 | 0 | 13 | 0 |  |  |  |  | 
COC(=O)[C@@H](Cc1ccccc1)NC(=S)N1CCC(n2c(=O)n(CCCNC(=N)N)c3ccccc32)CC1 [Compound 58] |  |  |  |  |  | 2 | 52 | 0 | 1430 | 0 |  | 
O=c1[nH]c2ccccc2n1C1CCN(C(=S)NCC(c2ccccc2)c2ccccc2)CC1 [Compound 13] |  |  | 230 to 233 |  | 1 | 22 |  |  |  |  | 4 | 1200
O=c1[nH]c2ccccc2n1C1CCN(C(=S)NCCc2ccc(Cl)cc2)CC1 [Compound 2] |  |  | 234 to 236 | 7 | 0 | 1 | 21 |  |  |  |  | 
O=c1[nH]c2ccccc2n1C1CCN(C(=S)NCc2ccccc2Cl)CC1 [Compound 12] |  |  | 181 to 184 |  | 0 | 21 |  |  |  |  | 5 | 2500
COc1ccc(NC(=S)N2CCC(n3c(=O)[nH]c4ccccc43)CC2)cc1 [Compound 5] |  |  | 238 to 243 | 34 | 8 | 14 | 38 |  |  |  |  | 
